Data as given in patent publication US20230034660A1, “PEPTIDES THAT ENHANCE NMDA RECEPTOR FUNCTION AND USE THEREOF” (University of Pittsburgh - Of the Commonwealth System of …, priority 2019, published 2023).

What was measured:
[1] = system: NMDAR; experiment: NMDAR EPSCs in DCN cartwheel cells in brain slices, ZX1 potentiation; assay type: cell-based, mice; conditions: ZX1 100 μM; for ZX1 potentiation of NMDAR-mediated synaptic currents, 20 Hz: slices treated with peptide 3 μM at least 1 hour, parallel fibers stimulated at 20 Hz, +40 mV
[2] = system: presynaptic release of glutamate; experiment: Paired pulse ratio and coefficient of variance of AMPAR responses (release probability); assay type: cell-based, mice; conditions: peptide-treated slices; for paired pulse ratio (PPR): AMPAR EPSCs, 50 millisecond interval; for coefficient of variance (CV): AMPAR responses
Experimental: For brain slice recordings, whole-cell recordings of NMDAR EPSCs in slice DCN cartwheel cells were obtained with micropipettes (3-6 MΩ) containing 128 mM Cs(CH3O3S), 4 mM MgCl2·6H2O, 4 mM Na2ATP, 10 mM HEPES, 0.3 mM Tris-GTP, 10 mM Tris-phosphocreatine, 1 mM CsEGTA, 1 mM, QX-314, 3 mM sodium ascorbate, pH=˜7.2, 300 mOsm. Cartwheel cells were identified by the presence of complex spikes (Zhang and Oertel, 1993; Golding and Oertel, 1997; Tzounopoulos et al., 2004) in cell-attached configuration before break-in or in response to current injections in current-clamp mode after break-in. NMDAR EPSCs were recorded in voltage clamp mode, at a holding potential of +40 mV, in the presence of DNQX (20 μM, AMPA and kainate receptor antagonist), SR95531. (20 μM, GABAAR antagonist), and strychnine (1 μM, GlyR antagonist), ZX1 (100 μM) was included in the pipette in experiments where noted. Whole-cell recordings of AMPAR EPSCs were obtained with micropipettes containing […], 4.5 mM MgCl2·6 H2O, 14 mM Tris-phosphocreatine, 9 mM HEPES, 0.1 mM EGTA, 4 mM Na2ATP, 0.3 mM Tris-GTP, 10 mM sucrose, pH=7.3, 295 mOsm. AMPA EPSCs were recorded in voltage clamp mode at a holding potential of −70 mV in the presence of SR9551. (20 μM, GABAAR antagonist) and strychnine (1 μM, GlyR antagonist). Both NMDAR and […] EPSCs were evoked using an Isoflex stimulator (A.M.P.I. 0.1 ms pulses) stimulating parallel fibers with voltage pulses through a theta glass electrode. Stimulus intensity was adjusted to a level that consistently evoked stable responses. For paired pulse experiments, inter-stimulus interval was 50 milliseconds. Once a stable response was established, ZX1 (100 μM) was added to the recording solution to measure the effect of zinc chelation on EPSCs. The series resistance was not compensated because the currents measured were relatively small, therefore there was minimum voltage clamp error. The series resistance was monitored during the recording by delivering −5 mV voltage steps for 50 milliseconds for each sweep. The peak current value (ΔIpeak) generated immediately after the step in the command potential was used to calculate series resistance (Rseries) using the following formula: Rseries=−5 mv/ΔIpeak. […] All values reported are animal-based values, in cases where multiple cells were recorded from the same animal preparation, the average of cells is presented (Lazic et al., 2018). […]
Next, it was evaluated whether a change in presynaptic release of glutamate could contribute to the observed actions of N2AZ on NMDAR-mediated synaptic currents. […] To measure PPR, two stimuli were given in rapid succession and the ratio of the second EPSC to the first was calculated. […]

[3] = system: NMDAR; experiment: NMDAR Lev-EPSCs in auditory cortex L2/3 principal neurons, ZX1 effect; assay type: cell-based, ICR mice; conditions: auditory cortex slices incubated with peptide or scramble; 100 μM ZX1; +40 mV
Text: (FIG. 11A) Left: schematic illustration of stereotaxic injections in ICR mice, of retrograde microspheres of different colors to label corticocallosal (CCal) and corticollicular (CCol) neurons. CCol neurons were used to identify AC, and viral vector (AAV) for expression of channel rhodopsin (ChR2) in AC L2/3 PNs. Right: schematic illustrating slice electrophysiology experiment involving photostimulation of ChR2 expressing AC L2/3 PNs while recording from adjacent L2/3 PNs. (FIG. 11B) Top: representative traces of L2/3 PN NMDAR Lev-EPSCs (at +40 mV) evoked by a 0.15-ms duration pulse photostimulation of adjacent PNs in control and after 100 μM ZX1, in slices incubated with scramble. Bottom: same as the top panel in slices incubated with the peptide. (FIG. 11C) Time course of the average amplitude of NMDAR Lev-EPSCs before and after ZX1 in slices incubated with scramble and peptide. During the entire experiment application of DNQX and SR 95531 blocked AMPARs and GABAARs, correspondingly. (FIG. 11D) Average effect of ZX1 on L2/3 PN NMDAR Lev-EPSCs amplitudes normalized to control. Peptide ZX1 effect=99.02±3.8%, P=0.521, paired 1-tests, n=3 cells from two mice: Scramble ZX1 effect=159.4±15.8%, P=0.068, paired t-tests, n=4 cells from three mice. The difference is statistically significant at P=0.034, Unpaired t-test. Asterisk denotes a statistically significant difference at P<0.05. […]

Sequence | ZX1 potentiation of NMDAR-mediated synaptic currents, WT littermates ([1]; N2AZ-treated slices (3 μM) from WT littermate controls, 20 Hz) [%] | ZX1 potentiation of NMDAR-mediated synaptic currents, ZnT3 KO ([1]; N2AZ-treated slices (3 μM) from ZnT3 null mice, 20 Hz) [%] | ZX1 potentiation of NMDAR-mediated synaptic currents, 20 Hz [1] [%] | ZX1 potentiation of NMDAR EPSCs, 100 Hz ([1]; slices treated with peptide 3 μM, 100 Hz stimulation frequency) [%] | paired pulse ratio (PPR) [2] | coefficient of variance (CV) [2] | ZX1 effect on L2/3 PN NMDAR Lev-EPSCs amplitudes normalized to control [3] [%]
NDSYLRSSL [Peptide N2AZ] | 5.60±4.38 | 11.9±6.90 | 19.39±5.82 | 1.95±4.33 | 2.29±0.07 | 0.26±0.031 | 99.02±3.8
SNLSDSYDR [scN2AZ, reference compound] | – | – | 47.30±10.14 | – | 2.18±0.26 | 0.28±0.030 | 159.4±15.8
